The results in this text go back to patent publication US8859584B2, “TRPV1 antagonists” (AbbVie Inc., priority 2011, dated 2014).

Where only a bound is given, the exact number is not on record here.

Test [1] addresses T1, human TRPV1 (Homo sapiens, UniProt Q8NER1).
T1 construct: expressed in transfected cells
The experiment in a line: Acid Activation Assay (pH 5.0, FLIPR intracellular Ca2+, recombinant HEK293 cells). It counts as cell-based. The conditions noted are these: percentage of maximal pH 5.0-induced response remaining; HEK293 hTRPV1; max concentration 37.5 μM. The procedure, abridged:
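HEK293 cells stably expressing recombinant hTRPV1 were loaded with calcium dye for 90-120 min at 25° C and pre-treated with compound for 3 min before a pH 5.0 (DPBS/MES) challenge. Peak FLIPR fluorescence over baseline is given as percentage of the maximal pH 5.0-induced response.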

Test [2] has as its target T1, human TRPV1. The experiment in a line: Capsaicin Activation Assay (FLIPR intracellular Ca2+, recombinant HEK293 cells). It counts as cell-based. The following applies: recombinant HEK293 cells expressing hTRPV1; 50 nM capsaicin; read-out: human TRPV1 capsaicin IC50.

T1 sequence (Q8NER1 whole entry): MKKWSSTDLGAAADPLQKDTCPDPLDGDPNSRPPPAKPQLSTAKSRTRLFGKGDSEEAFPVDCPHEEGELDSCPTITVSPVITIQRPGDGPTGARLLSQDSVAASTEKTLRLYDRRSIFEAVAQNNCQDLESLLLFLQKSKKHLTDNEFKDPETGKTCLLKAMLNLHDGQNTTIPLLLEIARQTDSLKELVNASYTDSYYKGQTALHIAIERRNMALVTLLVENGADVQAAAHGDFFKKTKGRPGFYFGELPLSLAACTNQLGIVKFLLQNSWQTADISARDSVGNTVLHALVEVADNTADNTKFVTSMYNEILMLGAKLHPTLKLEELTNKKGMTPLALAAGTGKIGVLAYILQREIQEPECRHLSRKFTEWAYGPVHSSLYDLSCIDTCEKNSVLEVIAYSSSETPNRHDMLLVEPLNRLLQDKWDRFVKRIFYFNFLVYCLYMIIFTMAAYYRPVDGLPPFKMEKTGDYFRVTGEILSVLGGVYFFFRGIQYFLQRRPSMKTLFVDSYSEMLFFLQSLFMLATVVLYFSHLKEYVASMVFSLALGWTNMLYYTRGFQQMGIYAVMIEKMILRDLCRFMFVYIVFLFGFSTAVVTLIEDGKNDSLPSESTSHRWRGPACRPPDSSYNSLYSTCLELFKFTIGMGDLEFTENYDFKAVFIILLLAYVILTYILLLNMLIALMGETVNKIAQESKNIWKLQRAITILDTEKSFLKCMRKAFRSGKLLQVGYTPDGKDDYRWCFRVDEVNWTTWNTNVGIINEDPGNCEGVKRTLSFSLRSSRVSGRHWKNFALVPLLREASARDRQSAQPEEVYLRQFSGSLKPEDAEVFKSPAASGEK

With `O=C(Nc1cccc2c1C[C@H](O)C2)N[C@@H]1CC(CF)(CF)Oc2ccccc21` [Example 69, 1-[(4R)-2,2-bis(fluoromethyl)-3,4-dihydro-2H-chromen-4-yl]-3-[(2R)-2-hydroxy-2,3-dihydro-1H-inden-4-yl]urea], in test [1], the “human TRPV1 H+ (max % remain)” value was 91%. In addition, in test [2], the IC50 is 0.4 µM.
Consider `CC1(C)C[C@@H](NC(=O)Nc2ccc(F)c3c2C[C@H](O)C3)c2cccc(OC(F)(F)F)c2O1` [Example 154, 1-[(4R)-2,2-dimethyl-8-(trifluoromethoxy)-3,4-dihydro-2H-chromen-4-yl]-3-[(2S)-7-fluoro-2-hydroxy-2,3-dihydro-1H-inden-4-yl]urea], for which, in test [1], the “human TRPV1 H+ (max % remain)” value is given as 3%. Also, the IC50 in test [2] stood at 0.082 µM.
As for `O=C(Nc1ccc(F)c2c1C[C@@H](O)C2)N[C@@H]1CC(CF)(CF)Oc2ccccc21` [Example 169, 1-[(4R)-2,2-bis(fluoromethyl)-3,4-dihydro-2H-chromen-4-yl]-3-[(2R)-7-fluoro-2-hydroxy-2,3-dihydro-1H-inden-4-yl]urea], in test [1], the “human TRPV1 H+ (max % remain)” value is 57%. Also, the IC50 in test [2] came to 3.4 µM.
On to `CC1(C)C[C@@H](NC(=O)Nc2ccc(F)c3c2C[C@@H](O)C3)c2cc(F)ccc2O1` [Example 165, 1-[(4R)-6-fluoro-2,2-dimethyl-3,4-dihydro-2H-chromen-4-yl]-3-[(2R)-7-fluoro-2-hydroxy-2,3-dihydro-1H-inden-4-yl]urea], for which the “human TRPV1 H+ (max % remain)” value in test [1] stood at 49%. Also, the half-maximal inhibitory concentration (IC50) in test [2] was 2.6 µM.
On to `O=C(Nc1cccc2c1C[C@H](O)C2)N[C@@H]1CCc2cc(F)ccc21` [Example 92, 1-[(1R)-5-fluoro-2,3-dihydro-1H-inden-1-yl]-3-[(2R)-2-hydroxy-2,3-dihydro-1H-inden-4-yl]urea], for which the “human TRPV1 H+ (max % remain)” value in test [1] was 60%. The 50% inhibitory concentration (IC50) in test [2] is 0.27 µM.
For `CCC1(CC)C[C@@H](NC(=O)Nc2cccc3c2C[C@H](O)C3)c2ccc(C(F)(F)F)cc2O1` [Example 53, 1-[(4R)-2,2-diethyl-7-(trifluoromethyl)-3,4-dihydro-2H-chromen-4-yl]-3-[(2R)-2-hydroxy-2,3-dihydro-1H-inden-4-yl]urea], in that order: 37% and 0.051 µM.
On to `O=C(Nc1cccc2c1C[C@H](O)C2)N[C@@H]1CC(CF)(CF)Oc2c1ccc(Cl)c2F` [Example 11, 1-[(4R)-7-chloro-8-fluoro-2,2-bis(fluoromethyl)-3,4-dihydro-2H-chromen-4-yl]-3-[(2R)-2-hydroxy-2,3-dihydro-1H-inden-4-yl]urea], for which the “human TRPV1 H+ (max % remain)” value in test [1] is 64%. Moreover, in test [2], the half-maximal inhibitory concentration (IC50) came to 0.056 µM.
For `O=C(Nc1cccc2c1C[C@@H](O)C2)N[C@@H]1CC(CF)(CF)Oc2c(F)cccc21` [Example 87, 1-[(4R)-8-fluoro-2,2-bis(fluoromethyl)-3,4-dihydro-2H-chromen-4-yl]-3-[(2S)-2-hydroxy-2,3-dihydro-1H-inden-4-yl]urea], in that order: 50% and 1.2 µM.
For `O=C(Nc1cccc2c1C[C@H](O)C2)N[C@@H]1CC(CF)(CF)Oc2cc(F)ccc21` [Example 129, 1-[(4R)-7-fluoro-2,2-bis(fluoromethyl)-3,4-dihydro-2H-chromen-4-yl]-3-[(2R)-2-hydroxy-2,3-dihydro-1H-inden-4-yl]urea], in that order: 53% and 0.36 µM.
As to `CC1(C)C[C@@H](NC(=O)Nc2cccc3c2C[C@H](O)C3)c2ccccc2O1` [Example 17, 1-[(4R)-2,2-dimethyl-3,4-dihydro-2H-chromen-4-yl]-3-[(2R)-2-hydroxy-2,3-dihydro-1H-inden-4-yl]urea], the “human TRPV1 H+ (max % remain)” value in test [1] stood at 82%. In test [2], the half-inhibitory concentration (IC50) stood at 0.24 µM.
For `C[C@@]1(C(F)F)C[C@@H](NC(=O)Nc2cccc3c2C[C@H](O)C3)c2ccc(Cl)cc2O1` [Example 20, 1-[(2S,4R)-7-chloro-2-(difluoromethyl)-2-methyl-3,4-dihydro-2H-chromen-4-yl]-3-[(2R)-2-hydroxy-2,3-dihydro-1H-inden-4-yl]urea], in that order: 64% and 0.036 µM.
For “1-[(2R)-7-fluoro-2-hydroxy-2,3-dihydro-1H-inden-4-yl]-3-[(4R)-8-(trifluoromethyl)-3,4-dihydro-2H-chromen-4-yl]urea [Example 173]”, in that order: 39% and 0.21 µM.
For `CCC1(CC)C[C@@H](NC(=O)Nc2cccc3c2C[C@H](O)C3)c2ccc(OC(F)(F)F)cc2O1` [Example 60, 1-[(4R)-2,2-diethyl-7-(trifluoromethoxy)-3,4-dihydro-2H-chromen-4-yl]-3-[(2R)-2-hydroxy-2,3-dihydro-1H-inden-4-yl]urea], in that order: 23% and 0.052 µM.
In the case of `O=C(Nc1cccc2c1C[C@H](O)C2)N[C@@H]1CC(CF)(CF)Oc2c(F)cccc21` [Example 70, 1-[(4R)-8-fluoro-2,2-bis(fluoromethyl)-3,4-dihydro-2H-chromen-4-yl]-3-[(2R)-2-hydroxy-2,3-dihydro-1H-inden-4-yl]urea], the “human TRPV1 H+ (max % remain)” value in test [1] is 99%. In addition, in test [2], the IC50 was 0.22 µM.
In the case of `CC1(C)C[C@@H](NC(=O)Nc2ccc(F)c3c2C[C@@H](O)C3)c2ccccc2O1` [Example 164, 1-[(4R)-2,2-dimethyl-3,4-dihydro-2H-chromen-4-yl]-3-[(2R)-7-fluoro-2-hydroxy-2,3-dihydro-1H-inden-4-yl]urea], in test [1], the “human TRPV1 H+ (max % remain)” value stood at 61%. Also, the IC50 in test [2] came out at 1.5 µM.
In the same order, the values of `CC1(C)C[C@@H](NC(=O)Nc2ccc(F)c3c2C[C@H](O)C3)c2cccc(F)c2O1` [Example 136, 1-[(4R)-8-fluoro-2,2-dimethyl-3,4-dihydro-2H-chromen-4-yl]-3-[(2S)-7-fluoro-2-hydroxy-2,3-dihydro-1H-inden-4-yl]urea] are 5% and 2.8 µM.
As for `O=C(Nc1c(F)ccc2c1C[C@@H](O)C2)N[C@@H]1CC(CF)(CF)Oc2cc(Cl)ccc21` [Example 176, 1-[(4R)-7-chloro-2,2-bis(fluoromethyl)-3,4-dihydro-2H-chromen-4-yl]-3-[(2S)-5-fluoro-2-hydroxy-2,3-dihydro-1H-inden-4-yl]urea], the “human TRPV1 H+ (max % remain)” value in test [1] was found to be 4%. In test [2], the IC50 stood at 0.21 µM.
In the same order, the values of `O=C(Nc1ccc(F)c2c1C[C@@H](O)C2)N[C@@H]1CC(CF)(CF)Oc2c(F)cc(F)cc21` [Example 162, 1-[(4R)-6,8-difluoro-2,2-bis(fluoromethyl)-3,4-dihydro-2H-chromen-4-yl]-3-[(2R)-7-fluoro-2-hydroxy-2,3-dihydro-1H-inden-4-yl]urea] are 50% and 3.4 µM.
On to `O=C(Nc1ccc(F)c2c1C[C@H](O)C2)N[C@@H]1CC(CF)(CF)Oc2ccccc21` [Example 151, 1-[(4R)-2,2-bis(fluoromethyl)-3,4-dihydro-2H-chromen-4-yl]-3-[(2S)-7-fluoro-2-hydroxy-2,3-dihydro-1H-inden-4-yl]urea], for which, in test [1], the “human TRPV1 H+ (max % remain)” value worked out at 6%. For the same compound, the IC50 in test [2] stood at 6.6 µM.
As for `O=C(Nc1cccc2c1C[C@H](O)C2)N[C@@H]1CCc2cc(Cl)ccc21` [Example 39, 1-[(1R)-5-chloro-2,3-dihydro-1H-inden-1-yl]-3-[(2R)-2-hydroxy-2,3-dihydro-1H-inden-4-yl]urea], in test [1], the “human TRPV1 H+ (max % remain)” value was found to be 46%. The half-inhibitory concentration (IC50) in test [2] was determined as 0.025 µM.
For `CC1(C)C[C@@H](NC(=O)Nc2cccc3c2C[C@H](O)C3)c2ccc(OC(F)(F)F)cc2O1` [Example 30, 1-[(4R)-2,2-dimethyl-7-(trifluoromethoxy)-3,4-dihydro-2H-chromen-4-yl]-3-[(2R)-2-hydroxy-2,3-dihydro-1H-inden-4-yl]urea], in that order: 39% and 0.042 µM.
For `CC1(C)C[C@H](NC(=O)Nc2cccc3c2C[C@H](O)C3)c2cc(F)ccc2O1` [Example 104, 1-[(4S)-6-fluoro-2,2-dimethyl-3,4-dihydro-2H-chromen-4-yl]-3-[(2R)-2-hydroxy-2,3-dihydro-1H-inden-4-yl]urea], in that order: 100% and greater than 38 µM.
For `O=C(Nc1cccc2c1C[C@@H](O)C2)N[C@@H]1CCOc2c(OC(F)(F)F)cccc21` [Example 73, 1-[(2S)-2-hydroxy-2,3-dihydro-1H-inden-4-yl]-3-[(4R)-8-(trifluoromethoxy)-3,4-dihydro-2H-chromen-4-yl]urea], in that order: 18% and 0.025 µM.
Regarding `O=C(Nc1ccc(F)c2c1CC(O)C2)NC1CCc2cc(C(F)(F)F)ccc21` (stereo not shown) [Example 155, 1-(7-fluoro-2-hydroxy-2,3-dihydro-1H-inden-4-yl)-3-[5-(trifluoromethyl)-2,3-dihydro-1H-inden-1-yl]urea], the “human TRPV1 H+ (max % remain)” value in test [1] was 19%. Also, the half-maximal inhibitory concentration (IC50) in test [2] worked out at 0.042 µM.
In the same order, the values of `O=C(Nc1cccc2c1C[C@@H](O)C2)N[C@@H]1CCOc2cc(OC(F)(F)F)ccc21` [Example 37, 1-[(2S)-2-hydroxy-2,3-dihydro-1H-inden-4-yl]-3-[(4R)-7-(trifluoromethoxy)-3,4-dihydro-2H-chromen-4-yl]urea] are 4% and 0.017 µM.
Consider `O=C(Nc1ccc(F)c2c1C[C@@H](O)C2)N[C@@H]1CC(CF)(CF)Oc2cc(OC(F)(F)F)ccc21` [Example 159, 1-[(4R)-2,2-bis(fluoromethyl)-7-(trifluoromethoxy)-3,4-dihydro-2H-chromen-4-yl]-3-[(2R)-7-fluoro-2-hydroxy-2,3-dihydro-1H-inden-4-yl]urea], for which the “human TRPV1 H+ (max % remain)” value in test [1] amounted to 36%. Further, the IC50 in test [2] turned out to be 0.42 µM.
